Test results reported in ChEMBL document CHEMBL5291721, “A preclinical secondary pharmacology resource illuminates target-adverse drug reaction associations of marketed drugs” (Nat Commun, 2023).

How the values were obtained:
[1] = target: T1, Muscarinic acetylcholine receptor M2 (Homo sapiens, UniProt P08172); format: functional, cell-based
T1 sequence (P08172 whole entry): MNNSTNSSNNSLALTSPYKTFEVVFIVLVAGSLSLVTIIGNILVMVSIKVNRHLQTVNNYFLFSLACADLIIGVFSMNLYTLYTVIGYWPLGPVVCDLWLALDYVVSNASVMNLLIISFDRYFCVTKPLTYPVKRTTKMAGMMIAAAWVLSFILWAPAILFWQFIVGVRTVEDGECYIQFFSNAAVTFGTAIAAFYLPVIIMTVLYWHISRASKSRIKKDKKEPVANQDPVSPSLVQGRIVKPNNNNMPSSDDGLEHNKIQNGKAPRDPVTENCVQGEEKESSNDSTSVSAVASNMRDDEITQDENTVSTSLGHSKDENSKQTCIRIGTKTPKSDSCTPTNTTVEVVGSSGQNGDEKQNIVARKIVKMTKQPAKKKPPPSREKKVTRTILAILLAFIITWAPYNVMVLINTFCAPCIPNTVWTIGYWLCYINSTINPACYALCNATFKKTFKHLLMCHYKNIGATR

Progesterone receptor [2] = target: T2, Progesterone receptor (Homo sapiens, UniProt P06401); format: functional
T2 sequence (P06401 whole entry): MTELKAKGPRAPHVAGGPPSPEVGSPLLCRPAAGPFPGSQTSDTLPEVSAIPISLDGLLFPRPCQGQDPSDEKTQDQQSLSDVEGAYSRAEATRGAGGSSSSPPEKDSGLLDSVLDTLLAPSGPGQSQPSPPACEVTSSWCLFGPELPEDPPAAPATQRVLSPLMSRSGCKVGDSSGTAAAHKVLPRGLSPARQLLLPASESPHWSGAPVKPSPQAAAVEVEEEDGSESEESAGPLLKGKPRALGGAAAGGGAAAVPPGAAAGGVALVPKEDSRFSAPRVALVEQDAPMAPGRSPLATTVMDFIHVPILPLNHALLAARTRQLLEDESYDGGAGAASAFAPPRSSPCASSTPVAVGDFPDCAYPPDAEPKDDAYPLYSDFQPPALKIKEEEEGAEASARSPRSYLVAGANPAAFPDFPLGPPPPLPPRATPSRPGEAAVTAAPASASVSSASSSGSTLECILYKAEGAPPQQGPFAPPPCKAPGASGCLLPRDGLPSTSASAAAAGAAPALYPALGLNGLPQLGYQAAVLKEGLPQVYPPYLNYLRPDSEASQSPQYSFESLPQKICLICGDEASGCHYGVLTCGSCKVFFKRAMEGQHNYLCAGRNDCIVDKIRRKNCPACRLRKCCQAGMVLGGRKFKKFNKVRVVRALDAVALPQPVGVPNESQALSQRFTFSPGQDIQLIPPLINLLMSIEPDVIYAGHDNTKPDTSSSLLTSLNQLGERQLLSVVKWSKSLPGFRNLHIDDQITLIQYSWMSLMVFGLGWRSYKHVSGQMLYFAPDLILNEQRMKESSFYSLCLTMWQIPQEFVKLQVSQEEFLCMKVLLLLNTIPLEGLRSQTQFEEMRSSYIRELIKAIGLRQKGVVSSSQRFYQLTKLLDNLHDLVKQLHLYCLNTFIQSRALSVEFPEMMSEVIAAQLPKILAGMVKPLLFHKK

[3] = target: T3, Amine oxidase [flavin-containing] A (Homo sapiens, UniProt P21397); format: functional
T3 sequence (P21397 whole entry): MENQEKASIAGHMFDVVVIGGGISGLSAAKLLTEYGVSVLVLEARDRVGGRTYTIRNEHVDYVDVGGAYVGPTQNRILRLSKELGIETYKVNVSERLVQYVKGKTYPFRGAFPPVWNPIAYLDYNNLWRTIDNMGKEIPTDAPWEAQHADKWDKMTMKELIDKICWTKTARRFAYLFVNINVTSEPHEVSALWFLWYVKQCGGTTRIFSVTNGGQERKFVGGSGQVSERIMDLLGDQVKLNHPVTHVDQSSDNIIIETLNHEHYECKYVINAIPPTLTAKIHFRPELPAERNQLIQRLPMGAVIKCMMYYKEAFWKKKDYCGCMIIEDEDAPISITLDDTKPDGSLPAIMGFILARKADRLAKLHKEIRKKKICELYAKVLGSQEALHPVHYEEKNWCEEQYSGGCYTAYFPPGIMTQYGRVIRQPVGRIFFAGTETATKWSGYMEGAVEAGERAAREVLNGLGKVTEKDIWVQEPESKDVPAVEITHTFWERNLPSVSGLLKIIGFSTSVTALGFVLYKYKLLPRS

[4] = target: Beta-2 adrenergic receptor (Homo sapiens, UniProt P07550)
Progesterone receptor [5] = target: T2, Progesterone receptor; format: functional; remark: listed apart in the source
Melanocortin receptor 3 = Melanocortin receptor 3 (Homo sapiens, UniProt P41968)
[6] = target: T4, 5-hydroxytryptamine receptor 3A (Homo sapiens, UniProt P46098); format: functional
T4 sequence (P46098 whole entry): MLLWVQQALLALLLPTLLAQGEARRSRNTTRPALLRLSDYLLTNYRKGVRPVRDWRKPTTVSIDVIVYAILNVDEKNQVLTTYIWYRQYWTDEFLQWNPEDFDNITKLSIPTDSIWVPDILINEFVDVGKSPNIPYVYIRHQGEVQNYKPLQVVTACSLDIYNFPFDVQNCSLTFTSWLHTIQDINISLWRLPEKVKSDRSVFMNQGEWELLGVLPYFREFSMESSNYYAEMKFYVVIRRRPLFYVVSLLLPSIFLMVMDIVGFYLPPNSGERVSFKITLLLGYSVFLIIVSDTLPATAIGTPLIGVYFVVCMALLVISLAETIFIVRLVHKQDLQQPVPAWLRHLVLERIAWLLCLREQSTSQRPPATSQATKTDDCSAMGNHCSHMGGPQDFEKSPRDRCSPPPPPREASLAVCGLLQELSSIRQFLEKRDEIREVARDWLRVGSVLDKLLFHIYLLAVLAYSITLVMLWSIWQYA

Vasopressin V1a receptor = Vasopressin V1a receptor (Homo sapiens, UniProt P37288)
Further: assay procedure not described here.

Sequence of Vasopressin V1a receptor (P37288 whole entry): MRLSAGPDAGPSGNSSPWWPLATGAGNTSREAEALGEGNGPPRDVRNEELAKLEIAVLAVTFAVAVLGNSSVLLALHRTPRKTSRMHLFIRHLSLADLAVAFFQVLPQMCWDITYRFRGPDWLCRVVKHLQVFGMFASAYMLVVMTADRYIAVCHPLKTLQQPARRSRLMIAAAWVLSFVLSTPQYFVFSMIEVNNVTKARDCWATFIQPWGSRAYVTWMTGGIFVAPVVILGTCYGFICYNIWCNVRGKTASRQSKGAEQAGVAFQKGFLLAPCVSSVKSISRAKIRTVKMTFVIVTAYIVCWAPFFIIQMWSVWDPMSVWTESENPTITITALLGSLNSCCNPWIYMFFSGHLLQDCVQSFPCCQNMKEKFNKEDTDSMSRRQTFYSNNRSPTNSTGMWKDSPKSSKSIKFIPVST
Sequence of Beta-2 adrenergic receptor (P07550 whole entry): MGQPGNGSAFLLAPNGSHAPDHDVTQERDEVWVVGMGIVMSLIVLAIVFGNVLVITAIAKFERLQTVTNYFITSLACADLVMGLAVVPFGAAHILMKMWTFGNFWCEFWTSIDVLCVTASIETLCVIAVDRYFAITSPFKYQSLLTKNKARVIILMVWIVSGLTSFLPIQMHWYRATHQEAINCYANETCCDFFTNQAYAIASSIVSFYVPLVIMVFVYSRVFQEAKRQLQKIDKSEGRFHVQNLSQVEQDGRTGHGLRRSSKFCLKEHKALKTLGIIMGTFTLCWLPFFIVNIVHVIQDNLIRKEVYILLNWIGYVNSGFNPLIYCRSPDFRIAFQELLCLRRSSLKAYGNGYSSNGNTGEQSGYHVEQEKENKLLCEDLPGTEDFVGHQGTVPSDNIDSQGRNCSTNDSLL
Sequence of Melanocortin receptor 3 (P41968 whole entry): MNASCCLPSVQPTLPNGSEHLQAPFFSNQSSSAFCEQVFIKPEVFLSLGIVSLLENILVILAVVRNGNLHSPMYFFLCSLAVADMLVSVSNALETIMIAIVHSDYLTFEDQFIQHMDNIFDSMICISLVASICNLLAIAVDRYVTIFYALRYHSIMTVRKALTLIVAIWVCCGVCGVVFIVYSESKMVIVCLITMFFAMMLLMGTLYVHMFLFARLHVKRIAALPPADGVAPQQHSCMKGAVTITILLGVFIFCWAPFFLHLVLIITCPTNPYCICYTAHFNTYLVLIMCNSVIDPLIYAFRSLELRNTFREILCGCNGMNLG

AC50 [1] [µM] | AC50 (Progesterone receptor [2]) [µM] | AC50 [3] [µM] | AC50 [4] [µM] | AC50 (Progesterone receptor [5]) [µM] | AC50 (Melanocortin receptor 3) [µM] | AC50 [6] [µM] | AC50 (Vasopressin V1a receptor) [µM] | Compound
> 30 | > 30 | > 30 | > 10 | > 30 | > 30 | > 30 | > 30 | CCOc1nc2cccc(C(=O)O)c2n1Cc1ccc(-c2ccccc2-c2nnn[nH]2)cc1
> 30 | > 30 | > 30 | > 30 | > 30 | > 30 | > 30 | > 30 | CC(=O)Nc1ccc(CC(=O)O)cc1 [ACTARIT]
> 30 | > 30 | > 30 | > 30 | > 30 | > 30 | > 30 | > 30 | CC=CC1=C(C(=O)O)N2C(=O)[C@@H](NC(=O)[C@H](N)c3ccc(O)cc3)[C@H]2SC1 [CEFPROZIL]
> 30 | > 30 | > 30 | > 10 | > 30 | > 30 | > 30 | > 30 | Cc1nc(Nc2ncc(C(=O)Nc3c(C)cccc3Cl)s2)cc(N2CCN(CCO)CC2)n1 [DASATINIB]
22 | > 30 | > 30 | > 30 | > 30 | > 30 | > 30 | > 30 | CCCCCCCN(CC)CCCC(O)c1ccc(NS(C)(=O)=O)cc1 (centres undefined) [IBUTILIDE]
> 10 | > 10 | > 10 | > 10 | > 10 | > 10 | > 30 |  | CNC(=C[N+](=O)[O-])NCCSCc1csc(CN(C)C)n1 [NIZATIDINE]
> 10 | > 10 | > 10 | > 10 | > 10 | > 10 | > 30 | > 10 | CCCc1cc(=O)[nH]c(=S)[nH]1 [PROPYLTHIOURACIL]
> 30 | > 30 | > 30 | > 30 | > 30 | > 30 | 0.0004 | > 30 | Cn1cc(C(=O)[C@@H]2CCc3nc[nH]c3C2)c2ccccc21 [RAMOSETRON]
22 | > 30 | 8 | > 30 | > 30 | 20.8 | > 30 | > 30 | CN(CCOc1ccc(CC2SC(=O)NC2=O)cc1)c1ccccn1 (centres undefined) [ROSIGLITAZONE]
 | 11.2 | > 10 | > 10 | > 30 | > 10 | > 30 | > 10 | COc1cc(C(=O)NS(=O)(=O)c2ccccc2C)ccc1Cc1cn(C)c2ccc(NC(=O)OC3CCCC3)cc12 [ZAFIRLUKAST]

Compound | AC50 [1] [µM] | AC50 (Progesterone receptor [2]) [µM] | AC50 [3] [µM] | AC50 [4] [µM] | AC50 (Progesterone receptor [5]) [µM] | AC50 (Melanocortin receptor 3) [µM] | AC50 [6] [µM] | AC50 (Vasopressin V1a receptor) [µM]
CCCc1nc2c(C)cc(-c3nc4ccccc4n3C)cc2n1Cc1ccc(-c2ccccc2C(=O)O)cc1 | 5.16 | > 30 | > 30 | > 30 | > 30 | > 30 | > 30 | > 30
COc1ccccc1OC1(C)OC(=O)c2ccccc2O1 (centres undefined) [GUAIMESAL] |  | > 30 |  | > 30 | > 30 | > 30 |  | > 30
COc1cc(C(C)=O)ccc1OCCCN1CCC(c2noc3cc(F)ccc23)CC1 [ILOPERIDONE] | 8.3 | > 30 | > 30 | > 10 | > 30 | > 30 | > 30 | > 30
